Patent publication US6670363B1, “Azole compounds as therapeutic agents for fungal infections” (Ranbaxy Laboratories Limited, priority 2000, dated 2003)
Converted amounts (≈) assume the structure as drawn.

Assays:
Assay type in all cases: cell-based
A. fumigatus s 1008 = assay: In vitro MIC, NCCLS M38P broth method (RPMI 1640/MOPS pH7), Aspergillus fumigatus; conditions: A. fumigatus strain 1008
Candida = assay: In vitro MIC, NCCLS M27A, Candida species; set-up: MIC, Candida albicans 1.549 / MIC, Candida albicans Y-01-19 / MIC, C. krusei 766-1 / MIC, C. krusei Q. C / MIC, Candida tropicalis ATCC / MIC, C. glabrata 90030: unit not given beside the values; MIC, Candida albicans A 26 / MIC, C. parapsilosis Q. C.: unit not given here; conditions: for MIC, C. glabrata 90030: C. glabrata strain 90030; for MIC, C. krusei 766-1: C. krusei strain 766-1; for MIC, C. krusei Q. C: C. krusei strain Q. C; for MIC, C. parapsilosis Q. C.: C. parapsilosis strain Q. C.; for MIC, Candida albicans 1.549: Candida albicans strain 1.549; for MIC, Candida albicans A 26: Candida albicans strain A 26; for MIC, Candida albicans Y-01-19: Candida albicans strain Y-01-19
Cryptococcus neoformans = assay: In vitro MIC, NCCLS M27A, Cryptococcus neoformans; set-up: MIC, C. neoformans I: unit not given beside the values; MIC, C. neoformans M 106: unit not given here; conditions: for MIC, C. neoformans I: C. neoformans strain I; for MIC, C. neoformans M 106: C. neoformans strain M 106
Histoplasma capsulatum = system: Histoplasma capsulatum

Row | SMILES | MIC, A. fumigatus 1008 (A. fumigatus s 1008) | MIC, C. glabrata 90030 (Candida) | MIC, C. krusei 766-1 (Candida) | MIC, C. krusei Q. C (Candida) | MIC, C. parapsilosis Q. C. (Candida) | MIC, Candida albicans 1.549 (Candida) | MIC, Candida albicans A 26 (Candida) | MIC, Candida albicans Y-01-19 (Candida) | MIC, Candida tropicalis ATCC (Candida) | MIC, C. neoformans I (Cryptococcus neoformans) | MIC, C. neoformans M 106 (Cryptococcus neoformans) | MIC, H. capsulatum (Histoplasma capsulatum) [µg/mL]
1 | CCc1ccccc1N1CCN(c2ccc(-n3c(C)nn([C@H](C)[C@](O)(Cn4cncn4)c4ccc(F)cc4F)c3=O)cc2)CC1 [Compound 31, 2-{[1R2R/1S2S]-2-(2,4-Difluorophenyl)-2-hydroxy-1-methyl-3-(1H-1,2,4-triazol-1-yl)propyl}-4-{4-[4-(2-ethylphenyl)-1-piperazinyl]phenyl}-3-(2H,4H)-5-methyl-1,2,4-triazolone] | 1.00 | 0.50 | 0.50 | 0.12 | <0.03 | >16 | <0.03 | 0.12 | <0.03 | <0.03 | <0.03 | 0.06 (≈ 0.0976 µM)
2 | CCc1ccccc1N1CCN(c2ccc(-n3c(C)nn([C@H](C)[C@@](O)(Cn4cncn4)c4ccc(F)cc4F)c3=O)cc2)CC1 [Compound 32, 2-{[1R2S/1S2R]-2-(2,4-Difluorophenyl)-2-hydroxy-1-methyl-3-(1H-1,2,4-triazol-1-yl)propyl}-4-{4-[4-(2-ethylphenyl)-1-piperazinyl]phenyl}-3-(2H,4H)-5-methyl-1,2,4-triazolone] | >16 | 2.00 | >16 | 4.00 | 0.50 | >16 | <0.03 | 4.00 | <0.03 | 0.50 | 0.50 | 0.25 (≈ 0.407 µM)
3 | Cc1nn([C@H](C)[C@](O)(Cn2cncn2)c2ccc(F)cc2F)c(=O)n1-c1ccc(N2CCN(c3ccc(Cl)cc3Cl)CC2)cc1 [Compound 33, 2-{[1R2R/1S2S]-2-(2,4-Difluorophenyl)-2-hydroxy-1-methyl-3-(1H-1,2,4-triazol-1-yl)propyl}-4-{4-[4-(2,4-dichlorophenyl)-1-piperazinyl]phenyl}-3-(2H,4H)-5-methyl-1,2,4-triazolone] | 0.50 | 0.25 | 0.25 | 0.06 | <0.03 | 0.13 | <0.03 | 0.13 | <0.03 | <0.03 | <0.03 | 0.12 (≈ 0.183 µM)
4 | COc1ccccc1N1CCN(c2ccc(-n3c(C)nn(CC(O)(Cn4cncn4)c4ccc(F)cc4F)c3=O)cc2)CC1 (stereo not drawn) [Compound 35, 2-[2-(2,4-Difluorophenyl)-2-hydroxy-3-(1H-1,2,4-triazol-1-yl)propyl]-4-{4-[4-(2-methoxyphenyl)-1-piperazinyl]phenyl}-3-(2H,4H)-5-methyl-1,2,4-triazolone] | >12.5 | 12.50 | 12.50 | 3.12 | 0.20 | 1.56 | <0.02 | 3.12 | <0.02 | 0.80 | 3.12 | 0.2 (≈ 0.332 µM)
5 | Cc1nn(CC(O)(Cn2cncn2)c2ccc(F)cc2F)c(=O)n1-c1ccc(N2CCN(c3ccc(F)cc3)CC2)cc1 (stereo not drawn) [Compound 36, 2-[2-(2,4-Difluorophenyl)-2-hydroxy-3-(1H-1,2,4-triazol-1-yl)propyl]-4-{4-[4-(4-fluorophenyl)-1-piperazinyl]phenyl}-3-(2H,4H)-5-methyl-1,2,4-triazolone] | >12.5 | 3.12 | 3.12 | 1.56 | <0.02 | 0.20 | <0.02 | 0.40 | <0.02 | 0.20 | 0.40 | < 0.02
6 | O=c1n(-c2ccc(N3CCN(c4ccccc4)CC3)cc2)cnn1CC(O)(Cn1cncn1)c1ccc(F)cc1F (stereo not drawn) [Compound 45, 2-[2-(2,4-Difluorophenyl)-2-hydroxy-3-(1H-1,2,4-triazol-1-yl)propyl]-4-{4-[1-phenyl-1-piperazinyl]phenyl}-3-(2H,4H)-1,2,4-triazolone] | >12.5 | 0.10 | 0.80 | 0.10 | <0.02 | 0.05 | <0.02 | 0.05 | 3.12 | <0.02 | 0.10 | 3.12 (≈ 5.59 µM)
7 | Cc1nn(CC(O)(Cn2cncn2)c2ccc(F)cc2F)c(=O)n1-c1ccc(N2CCN(c3ccc(Cl)cc3)CC2)cc1 (stereo not drawn) [Compound 46, 2-[2-(2,4-Difluorophenyl)-2-hydroxy-3-(1H-1,2,4-triazol-1-yl)propyl]-4-{4-[4-(4-chlorophenyl)-1-piperazinyl]phenyl}-3-(2H,4H)-5-methyl-1,2,4-triazolone] | >12.5 | 6.25 | 3.12 | 0.80 | <0.02 | 0.40 | <0.02 | 0.40 | 0.05 | 0.05 | 0.40 | 0.1 (≈ 0.165 µM)
8 | O=c1n(-c2ccc(N3CCN(c4ccc(F)cc4Cl)CC3)cc2)cnn1CC(O)(Cn1cncn1)c1ccc(F)cc1F (stereo not drawn) [Compound 58, 2-[2-(2,4-Difluorophenyl)-2-hydroxy-3-(1H-1,2,4-triazol-1-yl)propyl]-4-{4-[4-(2-chloro-4-fluorophenyl)-1-piperazinyl]phenyl}-3-(2H,4H)-1,2,4-triazolone] | 2.00 | 0.25 | 1.00 | 0.25 | <0.03 | 0.03 | <0.03 | 0.03 | <0.03 | <0.03 | <0.03 | 0.004 (≈ 0.00655 µM)
9 | COc1ccc(F)cc1N1CCN(c2ccc(-n3cnn(CC(O)(Cn4cncn4)c4ccc(F)cc4F)c3=O)cc2)CC1 (stereo not drawn) [Compound 59, 2-[2-(2,4-Difluorophenyl)-2-hydroxy-3-(1H-1,2,4-triazol-1-yl)propyl]-4-{4-[4-(2-methoxy-5-fluorophenyl)-1-piperazinyl]phenyl}-3-(2H,4H)-1,2,4-triazolone] | >16 | 1.00 | 4.00 | 1.00 | <0.03 | 1.00 | <0.03 | 0.50 | <0.03 | <0.03 | 0.12 | < 0.03
